Measurements: US9738634B2, “Heterocyclic amide compound and herbicide” (SYNGENTA PARTICIPATIONS AG, priority 2013, dated 2017)

Assays:
Format in all cases: in vivo
Conditions in all cases: treatment dosage 320 g/ha
corn [1] = assay: Test Example 4: foliar treatment, effect on crop; c: corn
Outline: (§1)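 Seeds are spot-sown into sterilized diluvial soil and covered with about 1.5 cm of soil. After 14 days' greenhouse growth at 25 to 30° C, plants are sprayed on stems and leaves with diluted emulsion at the stated g/ha rate, then scored at 3 weeks.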

chickweed = assay: Test Example 4: weedkilling efficacy by foliar treatment; N: chickweed
Outline: as §1

black-grass [2] = assay: Test Example 4: weedkilling efficacy by foliar treatment; H: black-grass
Outline: as §1

beet [3] = assay: Test Example 3: soil treatment, effect on crop; f: beet
Outline: (§2)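 Crop and weed responses were judged three weeks after a uniform surface spray of the water-diluted emulsion at the given g/ha rate. Seeds sat beneath about 1.5 cm of sterilized diluvial soil, and boxes stood in a greenhouse at 25 to 30° C.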

Italian ryegrass [4] = assay: Test Example 3: weedkilling efficacy through soil treatment; I: Italian ryegrass
Outline: as §2

directly sown rice [5] = assay: Test Example 3: soil treatment, effect on crop; b: directly sown rice
Outline: as §2

wild oat [6] = assay: Test Example 3: weedkilling efficacy through soil treatment; G: wild oat
Outline: as §2

beet [7] = assay: Test Example 4: foliar treatment, effect on crop; f: beet
Outline: as §1

directly sown rice [8] = assay: Test Example 4: foliar treatment, effect on crop; b: directly sown rice
Outline: as §1

catchweed [9] = assay: Test Example 4: weedkilling efficacy by foliar treatment; O: catchweed
Outline: as §1

soybean [10] = assay: Test Example 3: soil treatment, effect on crop; d: soybean
Outline: as §2

catchweed [11] = assay: Test Example 3: weedkilling efficacy through soil treatment; O: catchweed
Outline: as §2

barnyard grass [12] = assay: Test Example 1: weedkilling efficacy, preemergent weed treatment in the submerged state; A: barnyard grass
Outline: (§3)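 Pots of alluvial soil flooded 4 cm deep, sown with barnyard grass, bulrush and oval-leafed pondweed and transplanted with 2.5-leaf rice. Emulsified compound applied to the water surface on sowing day at stated g/ha; greenhouse 25–30 °C, effects assessed 3 weeks after treatment.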

bulrush [13] = assay: Test Example 2: weedkilling efficacy, growth period weed treatment in the submerged state; B: bulrush
Outline: (§4)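 Barnyard grass, bulrush and oval-leafed pondweed sown in alluvial soil under 4 cm flooding, greenhouse 25 to 30° C. At 1-2 leaf stage, water-diluted emulsion applied to the water surface at stated g/ha dosages; effects scored 3 weeks later.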

common wind-grass [14] = assay: Test Example 4: weedkilling efficacy by foliar treatment; J: common wind-grass
Outline: as §1

wild oat [15] = assay: Test Example 4: weedkilling efficacy by foliar treatment; G: wild oat
Outline: as §1

crabgrass [16] = assay: Test Example 4: weedkilling efficacy by foliar treatment; D: crabgrass
Outline: as §1

Italian ryegrass [17] = assay: Test Example 4: weedkilling efficacy by foliar treatment; I: Italian ryegrass
Outline: as §1

barnyard grass [18] = assay: Test Example 2: weedkilling efficacy, growth period weed treatment in the submerged state; A: barnyard grass
Outline: as §4

redroot pigweed [19] = assay: Test Example 3: weedkilling efficacy through soil treatment; L: redroot pigweed
Outline: as §2

corn [20] = assay: Test Example 3: soil treatment, effect on crop; c: corn
Outline: as §2

wheat [21] = assay: Test Example 3: soil treatment, effect on crop; e: wheat
Outline: as §2

black-grass [22] = assay: Test Example 3: weedkilling efficacy through soil treatment; H: black-grass
Outline: as §2

soybean [23] = assay: Test Example 4: foliar treatment, effect on crop; d: soybean
Outline: as §1

Indian mallow [24] = assay: Test Example 3: weedkilling efficacy through soil treatment; K: Indian mallow
Outline: as §2

wheat [25] = assay: Test Example 4: foliar treatment, effect on crop; e: wheat
Outline: as §1

barnyard grass [26] = assay: Test Example 3: weedkilling efficacy through soil treatment; F: barnyard grass
Outline: as §2

green foxtail [27] = assay: Test Example 4: weedkilling efficacy by foliar treatment; E: green foxtail
Outline: as §1

oval-leafed pondweed [28] = assay: Test Example 2: weedkilling efficacy, growth period weed treatment in the submerged state; C: oval-leafed pondweed
Outline: as §4

common wind-grass [29] = assay: Test Example 3: weedkilling efficacy through soil treatment; J: common wind-grass
Outline: as §2

barnyard grass [30] = assay: Test Example 4: weedkilling efficacy by foliar treatment; F: barnyard grass
Protocol: (§5) Testing of Weedkilling Efficacy by Foliar Treatment
(§6) Sterilized diluvial soil was introduced into 21 cm long, 13 cm wide, 7 cm deep plastic boxes, and seeds of crabgrass, green foxtail, barnyard grass, wild oat, black-grass, Italian ryegrass, common wind-grass, Indian mallow, redroot pigweed, fig-leafed goosefoot, chickweed, catchweed, birds-eye speedwell, corn, soybean, rice, wheat, beet and rapeseed were each spot-sown, and covered with about 1.5 cm of soil, then the plants were grown in a greenhouse at 25 to 30° C.
(§7) After they had grown for 14 days, emulsions of compounds of the present invention prepared according to compounding example 2 were diluted with water to give the specified dosages, and applied uniformly onto the stem and leaf parts with a small sprayer. 3 weeks after the pesticide treatment the effect on each type of plant was investigated on the basis of the assessment criteria of test example 1.
(§8) A: barnyard grass, B: bulrush, C: oval-leafed pondweed, D: crabgrass, E: green foxtail, F: barnyard grass, G: wild oat, H: black-grass, I: Italian ryegrass, J: common wind-grass, K: Indian mallow, L: redroot pigweed, M: fig-leafed goosefoot, N: chickweed, O: catchweed, p: birds-eye speedwell, a: transplanted rice, b: directly sown rice, c: corn, d: soybean, e: wheat, f: beet, g: rapeseed
(§9) Further, pesticide dosage (g/ha) indicates the concentration regulated such that treatment was with only the stated number of grams (g), when calculated per hectare (ha).

fig-leafed goosefoot = assay: Test Example 4: weedkilling efficacy by foliar treatment; M: fig-leafed goosefoot
Outline: as §1

bulrush [31] = assay: Test Example 1: weedkilling efficacy, preemergent weed treatment in the submerged state; B: bulrush
Outline: as §3

transplanted rice = assay: Test Example 1: preemergent weed treatment in the submerged state, effect on crop; a: transplanted rice
Outline: as §3

Indian mallow [32] = assay: Test Example 4: weedkilling efficacy by foliar treatment; K: Indian mallow
Outline: as §1

crabgrass [33] = assay: Test Example 3: weedkilling efficacy through soil treatment; D: crabgrass
Outline: as §2

redroot pigweed [34] = assay: Test Example 4: weedkilling efficacy by foliar treatment; L: redroot pigweed
Outline: as §1

green foxtail [35] = assay: Test Example 3: weedkilling efficacy through soil treatment; E: green foxtail
Outline: as §2

rapeseed [36] = assay: Test Example 3: soil treatment, effect on crop; g: rapeseed
Outline: as §2

rapeseed [37] = assay: Test Example 4: foliar treatment, effect on crop; g: rapeseed
Protocol: as §5, §6, §7, §8, §9

oval-leafed pondweed [38] = assay: Test Example 1: weedkilling efficacy, preemergent weed treatment in the submerged state; C: oval-leafed pondweed
Outline: as §3

birds-eye speedwell = assay: Test Example 3: weedkilling efficacy through soil treatment; p: birds-eye speedwell
Outline: as §2

CC1=C(c2ccccc2)C(=O)N(C(C)(C)C(=O)Nc2cc(Br)cc(F)n2)CO1 [B-2-35]
c (corn) effect on crop grade (corn [1]): 1 (weed kill ratio 5% or more, less than 20%)
N (chickweed) weedkilling efficacy grade (chickweed): 3 (weed kill ratio 40% or more, less than 70%)
H (black-grass) weedkilling efficacy grade (black-grass [2]): 4 (weed kill ratio 70% or more, less than 90%)
f (beet) effect on crop grade (beet [3]): 4 (weed kill ratio 70% or more, less than 90%)
I (Italian ryegrass) weedkilling efficacy grade (Italian ryegrass [4]): 5 (weed kill ratio 90% or more, (practically complete withering))
b (directly sown rice) effect on crop grade (directly sown rice [5]): 2 (weed kill ratio 20% or more, less than 40%)
G (wild oat) weedkilling efficacy grade (wild oat [6]): 4 (weed kill ratio 70% or more, less than 90%)
f (beet) effect on crop grade (beet [7]): 3 (weed kill ratio 40% or more, less than 70%)
b (directly sown rice) effect on crop grade (directly sown rice [8]): 4 (weed kill ratio 70% or more, less than 90%)
O (catchweed) weedkilling efficacy grade (catchweed [9]): 5 (weed kill ratio 90% or more, (practically complete withering))
d (soybean) effect on crop grade (soybean [10]): 0 (weed kill ratio 5% or less (practically no effect))
O (catchweed) weedkilling efficacy grade (catchweed [11]): 0 (weed kill ratio 5% or less (practically no effect))
A (barnyard grass) weedkilling efficacy grade (barnyard grass [12]): 5 (weed kill ratio 90% or more, (practically complete withering))
B (bulrush) weedkilling efficacy grade (bulrush [13]): 5 (weed kill ratio 90% or more, (practically complete withering))
J (common wind-grass) weedkilling efficacy grade (common wind-grass [14]): 4 (weed kill ratio 70% or more, less than 90%)
G (wild oat) weedkilling efficacy grade (wild oat [15]): 2 (weed kill ratio 20% or more, less than 40%)
D (crabgrass) weedkilling efficacy grade (crabgrass [16]): 5 (weed kill ratio 90% or more, (practically complete withering))
I (Italian ryegrass) weedkilling efficacy grade (Italian ryegrass [17]): 4 (weed kill ratio 70% or more, less than 90%)
A (barnyard grass) weedkilling efficacy grade (barnyard grass [18]): 5 (weed kill ratio 90% or more, (practically complete withering))
L (redroot pigweed) weedkilling efficacy grade (redroot pigweed [19]): 3 (weed kill ratio 40% or more, less than 70%)
c (corn) effect on crop grade (corn [20]): 1 (weed kill ratio 5% or more, less than 20%)
e (wheat) effect on crop grade (wheat [21]): 1 (weed kill ratio 5% or more, less than 20%)
H (black-grass) weedkilling efficacy grade (black-grass [22]): 5 (weed kill ratio 90% or more, (practically complete withering))
d (soybean) effect on crop grade (soybean [23]): 4 (weed kill ratio 70% or more, less than 90%)
K (Indian mallow) weedkilling efficacy grade (Indian mallow [24]): 4 (weed kill ratio 70% or more, less than 90%)
e (wheat) effect on crop grade (wheat [25]): 0 (weed kill ratio 5% or less (practically no effect))
F (barnyard grass) weedkilling efficacy grade (barnyard grass [26]): 4 (weed kill ratio 70% or more, less than 90%)
E (green foxtail) weedkilling efficacy grade (green foxtail [27]): 5 (weed kill ratio 90% or more, (practically complete withering))
C (oval-leafed pondweed) weedkilling efficacy grade (oval-leafed pondweed [28]): 5 (weed kill ratio 90% or more, (practically complete withering))
J (common wind-grass) weedkilling efficacy grade (common wind-grass [29]): 5 (weed kill ratio 90% or more, (practically complete withering))
F (barnyard grass) weedkilling efficacy grade (barnyard grass [30]): 5 (weed kill ratio 90% or more, (practically complete withering))
M (fig-leafed goosefoot) weedkilling efficacy grade (fig-leafed goosefoot): 4 (weed kill ratio 70% or more, less than 90%)
B (bulrush) weedkilling efficacy grade (bulrush [31]): 5 (weed kill ratio 90% or more, (practically complete withering))
a (transplanted rice) effect on crop grade (transplanted rice): 0 (weed kill ratio 5% or less (practically no effect))
K (Indian mallow) weedkilling efficacy grade (Indian mallow [32]): 3 (weed kill ratio 40% or more, less than 70%)
D (crabgrass) weedkilling efficacy grade (crabgrass [33]): 5 (weed kill ratio 90% or more, (practically complete withering))
L (redroot pigweed) weedkilling efficacy grade (redroot pigweed [34]): 3 (weed kill ratio 40% or more, less than 70%)
E (green foxtail) weedkilling efficacy grade (green foxtail [35]): 5 (weed kill ratio 90% or more, (practically complete withering))
g (rapeseed) effect on crop grade (rapeseed [36]): 4 (weed kill ratio 70% or more, less than 90%)
g (rapeseed) effect on crop grade (rapeseed [37]): 4 (weed kill ratio 70% or more, less than 90%)
C (oval-leafed pondweed) weedkilling efficacy grade (oval-leafed pondweed [38]): 5 (weed kill ratio 90% or more, (practically complete withering))
P (birds-eye speedwell) weedkilling efficacy grade (birds-eye speedwell): 4 (weed kill ratio 70% or more, less than 90%)
